In US7728128B2, “Dibenzo[c,h][1,5]naphthyridines and their use as DNA probes” (Institut National de la Sante et de la Recherche Medicate …, priority 2006, dated 2010):
Converted amounts (≈) assume the structure as drawn. “And” between values parts separate entries of the source, which are not always exact repeats. Equal entries are not always repeated.

What was measured:
[1] = test system: Xenopus cells XL177; assay: visual phenotypic screen on live Xenopus cells XL177; assay type: cell-based
Procedure: (§1) In this study, three different types of cells were used: Xenopus epithelial cell line XL177 (Miller, L. et al., 1977, In Vitro, 13, 557-563) stably transformed with a YFP-α-tubulin expressing construct (pEYFP-Tub, Clontech), mouse fibroblasts, and primary human skin fibroblasts. XL177 cells were grown at 20° C. in 60% Leibowitz-15 medium, supplemented with antibiotics, 10% fetal calf serum (FCS) and 10 mM HEPES, pH 7.2 with addition of 0.7 mg/ml G418. Cells were plated into glass-bottom 96-well plates (Greiner, Germany) and left to spread for 24 hours before being incubated in the presence of the test compounds from the Curie-CNRS small molecule library (at 25 or 50 μM final concentration) for another 20-24 hours. Mouse and human fibroblasts were grown in DMEM with antibiotics and 10% FCS at 37° C. in the presence of 5% CO2. The cells were observed using a Zeiss Axiovert 200M microscope with a 40× oil immersion objective and a standard Alexa488/FITC filter (Omega, XF100-2; Ex475AF40/Em535AF45/Dichroic505). Subsequent experiments were carried out using smaller concentrations of compound I and incubation times as described in the text and figures legends. For the in vivo tests of compound I-like compounds, the molecules were added to cell culture medium at 10 μM final concentration and incubated with cells 10-60 min (up to 24 hours) prior to scoring.
The signal appeared after 10-20 sec illumination and was stable for many minutes thereafter (see below).

[2] = test system: human histone 1 (H1); assay: titration of plasmid DNA with dye in absence or presence of histone 1; assay type: biochemical
[3] = stability in DMSO; assay type: physicochemical
Procedure: Stability of compound I: When stored in the dark in anhydrous DMSO at −25° C., compound I is stable for periods up to 3 years (LC-MS).

[4] = solubility in DMSO; assay type: physicochemical; details: organic solvent or mixture, free base, read-out: solubility (saturation)
Procedure: Solubility of compound I: In DMSO, compound I (free base) is soluble until saturation at ˜7 mM. As much as 1 volume of 7 mM, compound I in DMSO mixed with 7 volumes of H2O forms a turbid solution (0.875 mM compound I in ˜12% DMSO). Upon sonication for 1 min, this solution becomes limpid and can be further dissolved in aqueous solutions.

[5] = test system: CT DNA; assay: quantum yield, free dye and in admixture with CT DNA; assay type: physicochemical, calf
Procedure: (§2) Spectrometry and fluorimetry were performed using a SpectraMax384 (Molecular Devices) and a Luminescence Spectrometer LS50B (Perkin Elmer). Fluorescence emission of compound I in complex with DNA and RNA was measured in 50 mM Na phosphate buffer, pH 7.2 at room temperature. Before use, total E. coli RNA was heated to 100° C. for 1 min and immediately transferred on ice for 5 min before mixing with compound I solution. All measurements were carried out at room temperature (20-23° C.) in solutions protected from light and incubated for ˜10-15 min after dilution. The units of b/dye and bp/dye are defined as moles of RNA bases or DNA base pairs per mole of dye. Quantum yield was measured using quinine sulphate as standard as described in (Iupac Commission on Photochemistry, EPA Newsletter of November 1986, 21-29) using FLUOROMAX-3 Spex Spectrofluorometer (HORIBA) and UVIKON XL Spectrophotometer (SECOMAM).
Although compound I also stains mitotic chromosomes (FIG. 1D), theoretically it was possible that it binds specifically to DNA-associated proteins (for example histones) rather than to nucleic acids. To resolve this issue, the absorption and emission spectra of free compound I before and after addition of dsDNA were recorded. […] Molar extinction coefficient (EC) of free compound I at 391 nm was measured at 10,800 cm^−1 M^−1. […]

[6] = test system: human fibroblasts; assay: in vivo nuclear fluorescence of human fibroblasts incubated with the molecules, scored in the microscope; assay type: cell-based; parameters: key: Weak: Staining was defined as “weak”, “moderate” or “strong” based on the nuclear signal/background ratio.; Moderate: Staining was defined as “weak”, “moderate” or “strong” based on the nuclear signal/background ratio.; Strong: Staining was defined as “weak”, “moderate” or “strong” based on the nuclear signal/background ratio; details: 10 μM, 10-60 min (up to 24 hours); Alexa488/FITC filter
Procedure: as §1
(§3) To get a further insight into how the structural properties of compound I contribute to its binding to DNA, the inventors analysed fourteen structural analogues present in the compound library. Although several of these compounds are fluorescent in vivo, this property went undetected in the initial screen most likely due to the latency period before the appearance of the signal (see below). To evaluate the activity of compound I-like molecules three tests were used: (1) in vivo, the inventors incubated human fibroblasts in the presence of the molecules and scored nuclear fluorescence in the microscope; (2 and 3) in vitro, the inventors looked at the absorption and fluorescence of free molecules before and after addition of plasmid DNA. […] With the exception of compound I and analogues 8 and 12, accurate in vitro measurement of the fluorescence intensities was impossible because the emission peaks for the free molecules were too close to that for the DNA-bound dye. This affected the height of the dye/DNA peaks.

[7] = test system: plasmid DNA; assay: absorption of free molecules before and after addition of plasmid DNA; assay type: physicochemical; parameters: Absorption maxima free dye / Absorption maxima DNA bound dye: unit not given here
Procedure: Plasmid dsDNA was purified using a Qiagen Maxiprep kit and used in the supercoiled form for absorption and fluorescence studies. E. coli total RNA was bought from Ambion, dA/dT and dG/dC homopolymers were purchased from Amersham Biosciences. Calf thymus (CT) high-molecular weight DNA and Hoechst 33258 were obtained from Sigma-Aldrich. Ethidium bromide was purchased from Amresco.
as §2
Although compound I also stains mitotic chromosomes (FIG. 1D), theoretically it was possible that it binds specifically to DNA-associated proteins (for example histones) rather than to nucleic acids. To resolve this issue, the absorption and emission spectra of free compound I before and after addition of dsDNA were recorded. […] Molar extinction coefficient (EC) of free compound I at 391 nm was measured at 10,800 cm^−1 M^−1. In the presence of ds plasmid DNA the absorption peaks of compound I at 373 and 391 nm decreased, and a new peak appears with a maximum at 435 nm (FIG. 1E). An overlay of the absorption spectra in complex with dsDNA at different bp per dye ratios gives a single isosbestic point at 398 nm. Free compound I fluoresces around 438 nm (the exact position of the peak depends on the excitation wavelength). […] At the same time, a new peak evolves with a maximum around 484 nm (FIG. 1F). The exact maximum of fluorescence of compound I/DNA complexes varies insignificantly as a function of the dye/bp ratio and/or base pairs composition of the nucleic acids. […] The quantum yield for compound I (excited at 435 nm) at 5 μM in 50 mM Na-phosphate, pH 7.2, was determined to be 2.7% for free dye and 13.8% in admixture with 50 μM CT DNA.
as §3

In the case of `COc1ccc2c(c1)c(C)nc1c3ccc(OC)cc3c(NCCCN(C)C)nc21` [Compound I, N′-(2,8-dimethoxy-12-methyl-dibenzo[c,h][1,5]naphthyridin-6-yl)-N,N-dimethyl-propane-1,3-diamine], the “illumination time before nuclear signal appeared” value ([1]; Alexa488/FITC filter) is reported as 10 to 20 s, the cell membrane permeability ([1]; live cells) is reported as “cell-membrane permeant” and the “toxicity in cultured cells” value ([1]; standard cell culture conditions) is reported as “non-toxic under standard cell culture conditions (up to six days in culture)”. For the same molecule, the “effect of H1 on dye/DNA fluorescence” value ([2]; 1 μM plasmid DNA, 1 μM H1, emission 484 nm, excitation 435 nm) was “H1 significantly affected the fluorescence”, the “effect of H1 on free dye fluorescence” value ([2]; excited at 391 nm) was “not quenched by H1” and the “stability, period stable” value ([3]; DMSO at 4° C. in the dark) was “stable for at least one year”. The “stability, period stable” value ([3]; DMSO solution, ambient temperature, dark) was “at least 48 hours”, the “stability, period stable” value ([3]; anhydrous DMSO at −25° C., dark (LC-MS)) was “up to 3 years” and the solubility [4] was roughly 7 mM (≈ 2830 µg/mL). For the same molecule, the quantum yield ([5]; free dye, 5 μM, 50 mM Na-phosphate pH 7.2, excited at 435 nm) was 2.7%, the quantum yield ([5]; in admixture with 50 μM CT DNA, 5 μM dye, excited at 435 nm) was 13.8% and the “Images of the in vivo nuclear staining” value [6] was “Strong”. The “Absorption maxima DNA bound dye” value ([7]; after addition of plasmid DNA) was 435, the “isosbestic point of absorption spectra” value ([7]; complex with dsDNA at different bp per dye ratios) was 398 nm and the “absorption maxima of free dye” value ([7]; free compound) was 224 nm and 245 nm and 283 nm and 326 nm and 373 nm and 391 nm. For the same molecule, the “Molar extinction coefficient (EC)” value ([7]; free dye at 391 nm) was 10,800 cm^−1 M^−1, the “Absorption maxima free dye” value ([7]; free molecule, before addition of plasmid DNA) was 394 and the “absorption maximum of new peak” value ([7]; in the presence of ds plasmid DNA) was 435 nm.
